Experimental data as given in ChEMBL document CHEMBL4507327 (2021).

How the values were obtained:
[1] = biological target: T1, Muscarinic acetylcholine receptor M1 (Homo sapiens) (UniProt P11229); settings: Compound concentration 10.0 uM
T1 sequence (whole entry): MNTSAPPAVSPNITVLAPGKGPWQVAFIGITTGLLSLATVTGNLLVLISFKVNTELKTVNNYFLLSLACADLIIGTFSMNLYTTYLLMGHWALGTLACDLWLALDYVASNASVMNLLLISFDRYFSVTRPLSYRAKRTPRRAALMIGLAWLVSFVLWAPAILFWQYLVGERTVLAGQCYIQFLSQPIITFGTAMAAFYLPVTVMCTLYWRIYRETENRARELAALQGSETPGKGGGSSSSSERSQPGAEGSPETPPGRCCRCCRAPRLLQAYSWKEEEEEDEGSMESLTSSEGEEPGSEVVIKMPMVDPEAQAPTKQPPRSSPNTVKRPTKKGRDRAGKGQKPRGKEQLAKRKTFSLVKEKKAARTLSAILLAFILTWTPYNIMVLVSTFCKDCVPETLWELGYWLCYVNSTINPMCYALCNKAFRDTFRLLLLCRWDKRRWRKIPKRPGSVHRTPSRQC

[2] = biological target: Muscarinic acetylcholine receptor M4 (Homo sapiens) (UniProt P08173); settings: Compound concentration 10.0 uM
Chain of Muscarinic acetylcholine receptor M4 (Homo sapiens) (P08173 whole entry): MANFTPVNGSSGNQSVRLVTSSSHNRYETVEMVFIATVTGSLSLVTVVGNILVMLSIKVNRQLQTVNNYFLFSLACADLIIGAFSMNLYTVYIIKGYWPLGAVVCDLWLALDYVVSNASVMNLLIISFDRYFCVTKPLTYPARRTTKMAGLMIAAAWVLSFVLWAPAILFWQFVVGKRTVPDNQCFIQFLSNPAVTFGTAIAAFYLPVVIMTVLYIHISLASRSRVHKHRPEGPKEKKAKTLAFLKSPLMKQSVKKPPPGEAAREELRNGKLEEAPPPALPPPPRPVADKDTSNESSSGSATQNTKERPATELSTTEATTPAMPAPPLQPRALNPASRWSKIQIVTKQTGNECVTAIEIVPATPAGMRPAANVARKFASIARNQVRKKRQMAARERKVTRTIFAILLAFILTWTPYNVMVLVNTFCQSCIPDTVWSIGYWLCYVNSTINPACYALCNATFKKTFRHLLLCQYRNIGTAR

[3] = biological target: T2, 5-hydroxytryptamine receptor 1A (Homo sapiens) (UniProt P08908); settings: Compound concentration 10.0 uM
T2 sequence (whole entry): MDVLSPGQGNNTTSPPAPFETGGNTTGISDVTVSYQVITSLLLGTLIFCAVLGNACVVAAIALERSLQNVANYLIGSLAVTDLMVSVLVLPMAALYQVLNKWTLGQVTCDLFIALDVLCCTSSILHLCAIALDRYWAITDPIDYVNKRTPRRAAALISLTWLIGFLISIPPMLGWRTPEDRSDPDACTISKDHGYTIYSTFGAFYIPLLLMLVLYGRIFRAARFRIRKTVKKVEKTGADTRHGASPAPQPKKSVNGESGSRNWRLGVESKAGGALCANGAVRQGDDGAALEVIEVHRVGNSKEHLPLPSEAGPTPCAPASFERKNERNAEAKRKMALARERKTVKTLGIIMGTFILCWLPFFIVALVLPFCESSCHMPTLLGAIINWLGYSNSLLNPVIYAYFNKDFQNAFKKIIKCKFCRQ

Rattus norvegicus = species: Rattus norvegicus; settings: Compound concentration 10.0 uM
[4] = biological target: D(4) dopamine receptor (Homo sapiens) (UniProt P21917); settings: Compound concentration 10.0 uM
Chain of D(4) dopamine receptor (Homo sapiens) (P21917 whole entry): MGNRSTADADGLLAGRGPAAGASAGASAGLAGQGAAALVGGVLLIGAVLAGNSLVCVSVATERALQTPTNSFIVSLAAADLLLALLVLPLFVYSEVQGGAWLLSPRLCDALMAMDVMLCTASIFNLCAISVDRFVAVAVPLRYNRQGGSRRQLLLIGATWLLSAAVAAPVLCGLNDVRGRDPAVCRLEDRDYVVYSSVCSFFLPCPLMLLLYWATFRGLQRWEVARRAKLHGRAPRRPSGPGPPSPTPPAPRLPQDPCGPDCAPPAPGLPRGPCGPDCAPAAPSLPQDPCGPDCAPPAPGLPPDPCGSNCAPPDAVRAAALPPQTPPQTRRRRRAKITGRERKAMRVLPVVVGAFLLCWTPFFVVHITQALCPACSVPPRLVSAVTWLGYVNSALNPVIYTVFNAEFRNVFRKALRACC

[5] = biological target: Alpha-2A adrenergic receptor (Homo sapiens) (UniProt P08913); settings: Compound concentration 10.0 uM
[6] = biological target: 5-hydroxytryptamine receptor 2A (Homo sapiens) (UniProt P28223); settings: Compound concentration 10.0 uM
[7] = biological target: Calcium/calmodulin-dependent protein kinase type 1 (Homo sapiens, UniProt Q14012); experiment: CaMK1alpha(CAM1LGT5) Takeda global kinase panel
[8] = biological target: L-type calcium channel, benzothiazepine site (Cav1.2 alpha-1C) (Homo sapiens, UniProt Q13936); experiment: Inhibition of Calcium Channel L-Type, Benzothiazepine at 10 µM in the Eurofins-Panlabs radioligand binding assay (Eurofins_assay_214510); parameters: ligand concentration 2 nM, non-specific ligand with concentration 10 µM Diltiazem, incubation time 3h, incubation temperature 4 °C; settings: male, Wistar, rat, whole brain of rats, probe [3H] Diltiazem; compound concentration 10 uM; target entry is the homologue from another species
Chain of L-type calcium channel, benzothiazepine site (Cav1.2 alpha-1C) (Q13936 whole entry): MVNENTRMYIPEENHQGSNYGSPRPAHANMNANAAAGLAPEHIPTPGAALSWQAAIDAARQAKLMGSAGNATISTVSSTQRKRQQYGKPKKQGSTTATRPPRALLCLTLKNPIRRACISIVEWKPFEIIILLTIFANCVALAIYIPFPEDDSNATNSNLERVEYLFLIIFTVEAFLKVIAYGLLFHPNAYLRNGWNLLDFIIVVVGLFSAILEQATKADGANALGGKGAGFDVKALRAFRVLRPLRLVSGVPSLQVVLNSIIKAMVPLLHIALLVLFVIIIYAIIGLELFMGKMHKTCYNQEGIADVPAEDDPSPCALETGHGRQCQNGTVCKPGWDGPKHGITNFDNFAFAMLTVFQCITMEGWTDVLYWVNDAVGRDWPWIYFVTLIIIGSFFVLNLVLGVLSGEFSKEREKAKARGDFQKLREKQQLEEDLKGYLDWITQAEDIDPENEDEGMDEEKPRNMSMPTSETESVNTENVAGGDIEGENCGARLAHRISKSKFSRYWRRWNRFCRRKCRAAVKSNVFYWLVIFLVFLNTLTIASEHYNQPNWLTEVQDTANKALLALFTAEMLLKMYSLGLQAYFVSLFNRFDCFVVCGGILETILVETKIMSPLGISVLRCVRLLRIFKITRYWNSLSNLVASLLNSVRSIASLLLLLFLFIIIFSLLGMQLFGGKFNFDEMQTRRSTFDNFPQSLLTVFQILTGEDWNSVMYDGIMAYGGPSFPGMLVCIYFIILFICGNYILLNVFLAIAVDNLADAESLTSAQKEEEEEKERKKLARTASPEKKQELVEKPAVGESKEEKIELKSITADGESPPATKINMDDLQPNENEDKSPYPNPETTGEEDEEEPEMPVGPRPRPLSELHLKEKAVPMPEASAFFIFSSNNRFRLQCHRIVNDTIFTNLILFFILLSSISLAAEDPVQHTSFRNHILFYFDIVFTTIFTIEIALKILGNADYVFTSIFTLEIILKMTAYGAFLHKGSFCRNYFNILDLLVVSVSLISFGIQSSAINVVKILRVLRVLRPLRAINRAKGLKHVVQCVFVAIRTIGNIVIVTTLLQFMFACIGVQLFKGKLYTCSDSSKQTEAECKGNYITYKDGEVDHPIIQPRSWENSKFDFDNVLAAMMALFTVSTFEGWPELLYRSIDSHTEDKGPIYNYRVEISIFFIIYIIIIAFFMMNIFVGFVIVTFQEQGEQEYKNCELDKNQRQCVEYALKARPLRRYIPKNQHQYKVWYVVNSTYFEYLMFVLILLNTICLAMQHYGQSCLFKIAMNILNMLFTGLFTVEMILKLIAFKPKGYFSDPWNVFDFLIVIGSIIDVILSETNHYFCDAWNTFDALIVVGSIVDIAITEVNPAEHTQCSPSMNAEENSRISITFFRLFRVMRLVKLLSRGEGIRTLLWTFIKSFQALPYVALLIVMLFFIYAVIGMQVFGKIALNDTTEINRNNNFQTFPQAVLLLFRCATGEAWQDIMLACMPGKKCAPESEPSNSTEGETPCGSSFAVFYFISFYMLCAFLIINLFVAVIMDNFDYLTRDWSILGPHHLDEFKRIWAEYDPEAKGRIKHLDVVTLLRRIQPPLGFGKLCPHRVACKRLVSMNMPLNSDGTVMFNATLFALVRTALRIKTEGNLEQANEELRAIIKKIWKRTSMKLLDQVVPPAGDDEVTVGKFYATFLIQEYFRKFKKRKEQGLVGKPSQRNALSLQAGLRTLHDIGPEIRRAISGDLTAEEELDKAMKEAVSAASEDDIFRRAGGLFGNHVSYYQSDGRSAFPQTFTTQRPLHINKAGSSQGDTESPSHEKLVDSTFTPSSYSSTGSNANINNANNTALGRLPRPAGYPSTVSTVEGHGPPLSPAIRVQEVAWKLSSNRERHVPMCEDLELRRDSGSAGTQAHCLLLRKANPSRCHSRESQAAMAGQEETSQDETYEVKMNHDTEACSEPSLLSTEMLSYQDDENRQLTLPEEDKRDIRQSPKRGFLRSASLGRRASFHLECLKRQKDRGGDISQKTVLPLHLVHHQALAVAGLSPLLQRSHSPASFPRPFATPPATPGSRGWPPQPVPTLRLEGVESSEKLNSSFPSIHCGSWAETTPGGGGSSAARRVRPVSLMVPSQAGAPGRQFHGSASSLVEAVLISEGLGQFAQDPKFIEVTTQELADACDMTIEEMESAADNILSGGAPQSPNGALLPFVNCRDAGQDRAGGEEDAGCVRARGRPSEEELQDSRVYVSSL

Tribbles homolog 1 = Tribbles homolog 1 (Homo sapiens, UniProt Q96RU8); experiment: Trb1(TRI1PARP) Takeda global kinase panel
Chain of Tribbles homolog 1 (Q96RU8 whole entry): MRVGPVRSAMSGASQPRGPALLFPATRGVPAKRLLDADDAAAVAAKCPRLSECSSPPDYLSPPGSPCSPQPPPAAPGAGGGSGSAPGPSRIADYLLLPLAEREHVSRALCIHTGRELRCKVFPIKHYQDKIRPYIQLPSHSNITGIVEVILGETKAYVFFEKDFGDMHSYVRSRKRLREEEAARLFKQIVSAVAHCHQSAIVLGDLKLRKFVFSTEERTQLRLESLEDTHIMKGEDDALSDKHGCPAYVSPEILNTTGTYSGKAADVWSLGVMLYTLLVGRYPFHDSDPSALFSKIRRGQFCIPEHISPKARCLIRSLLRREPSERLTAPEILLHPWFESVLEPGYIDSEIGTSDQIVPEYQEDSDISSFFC

[9] = biological target: Serine/threonine-protein kinase TAO1 (Homo sapiens, UniProt Q7L7X3); experiment: TAO1(TAO1LGF1) Takeda global kinase panel
[10] = biological target: Fibroblast growth factor receptor 2 (Homo sapiens, UniProt P21802); experiment: FGFR2(FGF2LGF1) Takeda global kinase panel
Chain of Fibroblast growth factor receptor 2 (P21802 whole entry): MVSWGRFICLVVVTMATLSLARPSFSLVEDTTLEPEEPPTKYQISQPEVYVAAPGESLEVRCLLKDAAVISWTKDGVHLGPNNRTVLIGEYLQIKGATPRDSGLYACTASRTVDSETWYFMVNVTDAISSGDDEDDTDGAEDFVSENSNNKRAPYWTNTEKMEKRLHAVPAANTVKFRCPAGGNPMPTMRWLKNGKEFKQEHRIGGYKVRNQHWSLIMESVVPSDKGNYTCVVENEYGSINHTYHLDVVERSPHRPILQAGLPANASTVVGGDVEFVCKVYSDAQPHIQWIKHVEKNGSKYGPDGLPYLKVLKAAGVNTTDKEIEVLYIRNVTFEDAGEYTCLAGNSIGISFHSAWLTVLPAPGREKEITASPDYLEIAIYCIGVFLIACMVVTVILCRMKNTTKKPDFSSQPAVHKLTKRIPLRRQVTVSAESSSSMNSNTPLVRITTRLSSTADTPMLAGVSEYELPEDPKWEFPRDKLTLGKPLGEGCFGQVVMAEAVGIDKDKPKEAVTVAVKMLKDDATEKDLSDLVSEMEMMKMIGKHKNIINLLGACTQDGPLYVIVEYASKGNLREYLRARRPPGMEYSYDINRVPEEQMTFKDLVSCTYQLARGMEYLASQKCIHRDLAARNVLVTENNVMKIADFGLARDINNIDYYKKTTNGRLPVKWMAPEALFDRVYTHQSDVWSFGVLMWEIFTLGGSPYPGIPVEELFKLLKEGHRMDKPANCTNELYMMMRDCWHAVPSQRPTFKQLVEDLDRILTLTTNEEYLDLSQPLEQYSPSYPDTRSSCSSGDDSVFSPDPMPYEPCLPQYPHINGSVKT

[11] = biological target: Fibroblast growth factor receptor 1 (Homo sapiens, UniProt P11362); experiment: FGFR1(FGF1LGF1) Takeda global kinase panel
[12] = biological target: Calcium/calmodulin-dependent protein kinase type II subunit gamma (Homo sapiens, UniProt Q13555); experiment: CaMK2gamma(CA2GLGT5) Takeda global kinase panel
Chain of Calcium/calmodulin-dependent protein kinase type II subunit gamma (Q13555 whole entry): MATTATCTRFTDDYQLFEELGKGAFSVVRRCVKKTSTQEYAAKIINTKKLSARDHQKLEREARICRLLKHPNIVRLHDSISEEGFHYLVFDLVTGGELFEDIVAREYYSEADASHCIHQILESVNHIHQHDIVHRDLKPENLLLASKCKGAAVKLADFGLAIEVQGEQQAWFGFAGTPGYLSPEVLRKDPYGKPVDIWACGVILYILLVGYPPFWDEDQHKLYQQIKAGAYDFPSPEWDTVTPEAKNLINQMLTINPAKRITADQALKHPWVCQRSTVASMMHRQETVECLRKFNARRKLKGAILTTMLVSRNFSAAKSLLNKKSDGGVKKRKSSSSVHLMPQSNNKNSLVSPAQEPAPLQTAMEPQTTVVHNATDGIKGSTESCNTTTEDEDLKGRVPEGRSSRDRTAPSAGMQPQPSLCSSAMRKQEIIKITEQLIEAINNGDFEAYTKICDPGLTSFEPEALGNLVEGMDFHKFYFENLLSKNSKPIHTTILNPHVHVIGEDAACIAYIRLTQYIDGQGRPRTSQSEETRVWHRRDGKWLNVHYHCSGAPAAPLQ

[13] = biological target: Glutamate NMDA receptor (Rattus norvegicus) (UniProt P35439+Q00959+Q00960+Q00961+Q62645+Q8VHN2+Q9R1M7); settings: Compound concentration 10.0 uM
Activin receptor type-1B = Activin receptor type-1B (Homo sapiens, UniProt P36896); experiment: ALK4(AC1BLGF1) Takeda global kinase panel

Structure (SMILES)	inhibition [1]	inhibition [2]	inhibition [3]	inhibition (Rattus norvegicus)	inhibition [4]	inhibition [5]	inhibition [6]	IC50 [7]	inhibition at 3 h, 10 µM [8]	IC50 (Tribbles homolog 1)	IC50 [9]	IC50 [10]	IC50 [11]	IC50 [12]	inhibition [13]	IC50 (Activin receptor type-1B)
CN1C(=O)[C@@H](N2CCc3cn(Cc4ccccc4)nc3C2=O)COc2ccccc21 [TP-030-1]	0.6%	8.56%	5.07%	-7%	17.4%	7%	3.8%	–	–	–	–	–	–	–	–	–
CN1C(=O)[C@@H](N2CCc3cn(CC4CCS(=O)(=O)CC4)nc3C2=O)COc2ccccc21 [TP-030n]	–	–	–	–	–	–	–	1000 nM	2% (not active)	1000 nM	1000 nM	1000 nM	1000 nM	1000 nM	4%	1000 nM
